According to patent US10800772B2 (Gilead Sciences, Inc., priority 2016, dated 2020):

Columns and labels:
Format in all cases: cell-based, HIV-1
[1] = test system: HIV-IIIb IN T174I DE; experiment: Antiviral assay in MT4 cells, HIV-IIIb IN T174I DE virus (from dose escalation passaging); conditions: Human immunodeficiency virus 1, IIIB, MT4, 120 h, read-out: T174I DE EC50, MT4 cells, HIV-IIIb IN T174I DE (dose escalation), 5 days, CellTiter-Glo
How it was run: (§1)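 MT4 cells were pre-infected 3 h at 37 °C with HIV-IIIb (0.004 m.o.i.): wildtype, or IN T174I virus from breakthrough or from dose-escalation passaging. Cells (2000/well) were exposed to 10-point 3-fold compound dilutions in quadruplicate for 5 days at 37 °C. EC50 was the concentration giving 50% decrease in CellTiter-Glo luminescence.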

[2] = test system: HIV-IIIb (wildtype); experiment: Antiviral assay in MT4 cells, HIV-IIIb wildtype; conditions: Human immunodeficiency virus 1, IIIB, MT4, 120 h, read-out: WT EC50
How it was run: as §1

[3] = test system: HIV-IIIb IN T174I BT; experiment: Antiviral assay in MT4 cells, HIV-IIIb IN T174I BT virus (from viral breakthrough); conditions: Human immunodeficiency virus 1, IIIB, MT4, 120 h, read-out: T174I BT EC50, MT4 cells, HIV-IIIb IN T174I BT (viral breakthrough), 5 days, CellTiter-Glo
How it was run: as §1

Row | SMILES | EC50 [1] | EC50 [2] | EC50 [3]
1 | Cc1cc2nc(-c3cnc4c(c3)c(C3=CCN(C)CC3)cn4C)sc2c(-c2ccc(Cl)cc2)c1[C@H](OC(C)(C)C)C(=O)O [Compound 105, (S)-2-(tert-butoxy)-2-(7-(4-chlorophenyl)-5-methyl-2-(1-methyl-3-(1-methyl-1,2,3,6-tetrahydropyridin-4-yl)-1H-pyrrolo[2,3-b]pyridin-5-yl)benzo[d]thiazol-6-yl)acetic acid] | 2290 nM | 35 nM | 1460 nM
2 | Cc1cc2nc(-c3cnc4c(c3)c(C3CCN(C)CC3)cn4C)sc2c(-c2ccc(Cl)cc2)c1[C@H](OC(C)(C)C)C(=O)O [Compound 106, (S)-2-(tert-butoxy)-2-(7-(4-chlorophenyl)-5-methyl-2-(1-methyl-3-(1-methylpiperidin-4-yl)-1H-pyrrolo[2,3-b]pyridin-5-yl)benzo[d]thiazol-6-yl)acetic acid] | 3080 nM | 29 nM | 864 nM
3 | Cc1cc2nc(-c3cnc4c(c3)c(N3CCN(C)CC3)cn4C)sc2c(-c2ccc(Cl)cc2)c1[C@H](OC(C)(C)C)C(=O)O [Compound 107, (S)-2-(tert-butoxy)-2-(7-(4-chlorophenyl)-5-methyl-2-(1-methyl-3-(4-methylpiperazin-1-yl)-1H-pyrrolo[2,3-b]pyridin-5-yl)benzo[d]thiazol-6-yl)acetic acid] | 2360 nM | 23 nM | 1110 nM
4 | Cc1cc2nc(-c3ccn4ncc(C5CCN(C6COC6)CC5)c4n3)sc2c(-c2ccc(Cl)cc2)c1[C@H](OC(C)(C)C)C(=O)O [Compound 109, (S)-2-(tert-butoxy)-2-(7-(4-chlorophenyl)-5-methyl-2-(3-(1-(oxetan-3-yl)piperidin-4-yl)pyrazolo[1,5-a]pyrimidin-5-yl)benzo[d]thiazol-6-yl)acetic acid] | 614 nM | 3 nM | 205 nM
5 | COC(=O)N1CC(N2CCC(c3cnn4ccc(-c5nc6cc(C)c([C@H](OC(C)(C)C)C(=O)O)c(-c7ccc(Cl)cc7)c6s5)nc34)CC2)C1 [Compound 110, (S)-2-(tert-butoxy)-2-(7-(4-chlorophenyl)-2-(3-(1-(1-(methoxycarbonyl)azetidin-3-yl)piperidin-4-yl)pyrazolo[1,5-a]pyrimidin-5-yl)-5-methylbenzo[d]thiazol-6-yl)acetic acid] | 559 nM | 2 nM | 198 nM
6 | Cc1cc2nc(-c3cnc4c(c3)c(N3CCN(C(C)C)CC3)nn4C)sc2c(-c2ccc(Cl)cc2)c1[C@H](OC(C)(C)C)C(=O)O [Compound 111, (S)-2-(tert-butoxy)-2-(7-(4-chlorophenyl)-2-(3-(4-isopropylpiperazin-1-yl)-1-methyl-1H-pyrazolo[3,4-b]pyridin-5-yl)-5-methylbenzo[d]thiazol-6-yl)acetic acid] | 2880 nM | 5 nM | 1150 nM
7 | Cc1cc2nc(-c3cnc4c(c3)c(N3CCN(C5COC5)CC3)nn4C)sc2c(-c2ccc(Cl)cc2)c1[C@H](OC(C)(C)C)C(=O)O [Compound 112, (S)-2-(tert-butoxy)-2-(7-(4-chlorophenyl)-5-methyl-2-(1-methyl-3-(4-(oxetan-3-yl)piperazin-1-yl)-1H-pyrazolo[3,4-b]pyridin-5-yl)benzo[d]thiazol-6-yl)acetic Acid] | 2110 nM | 10 nM | 1250 nM
8 | Cc1cc2nc(-c3cnc4c(c3)c(C3CCN(C5COC5)CC3)nn4C)sc2c(-c2ccc(Cl)cc2)c1[C@H](OC(C)(C)C)C(=O)O [Compound 113, (S)-2-(tert-butoxy)-2-(7-(4-chlorophenyl)-5-methyl-2-(1-methyl-3-(1-(oxetan-3-yl)piperidin-4-yl)-1H-pyrazolo[3,4-b]pyridin-5-yl)benzo[d]thiazol-6-yl)acetic acid] | 1520 nM | 5 nM | 871 nM
9 | COC(=O)N1CC(N2CCC(c3nn(C)c4ncc(-c5nc6cc(C)c([C@H](OC(C)(C)C)C(=O)O)c(-c7ccc(Cl)cc7)c6s5)cc34)CC2)C1 [Compound 114, (S)-2-(tert-butoxy)-2-(7-(4-chlorophenyl)-2-(3-(1-(1-(methoxycarbonyl)azetidin-3-yl)piperidin-4-yl)-1-methyl-1H-pyrazolo[3,4-b]pyridin-5-yl)-5-methylbenzo[d]thiazol-6-yl)acetic acid] | 2200 nM | 12 nM | 1080 nM
10 | CCOC(=O)N1CC(N2CCC(c3nn(C)c4ncc(-c5nc6cc(C)c([C@H](OC(C)(C)C)C(=O)O)c(-c7ccc(Cl)cc7)c6s5)cc34)CC2)C1 [Compound 115, (S)-2-(tert-butoxy)-2-(7-(4-chlorophenyl)-2-(3-(1-(1-(ethoxycarbonyl)azetidin-3-yl)piperidin-4-yl)-1-methyl-1H-pyrazolo[3,4-b]pyridin-5-yl)-5-methylbenzo[d]thiazol-6-yl)acetic acid] | 2450 nM | 14 nM | 1600 nM
11 | Cc1cc2nc(-c3cnc4c(c3)c(C3CCN(C5CN(C(=O)OC(C)(C)C)C5)CC3)nn4C)sc2c(-c2ccc(Cl)cc2)c1[C@H](OC(C)(C)C)C(=O)O [Compound 116, (S)-2-(tert-butoxy)-2-(2-(3-(1-(1-(tert-butoxycarbonyl)azetidin-3-yl)piperidin-4-yl)-1-methyl-1H-pyrazolo[3,4-b]pyridin-5-yl)-7-(4-chlorophenyl)-5-methylbenzo[d]thiazol-6-yl)acetic acid] | 5190 nM | 40 nM | 3810 nM
12 | CC(=O)N1CC(N2CCC(c3nn(C)c4ncc(-c5nc6cc(C)c([C@H](OC(C)(C)C)C(=O)O)c(-c7ccc(Cl)cc7)c6s5)cc34)CC2)C1 [Compound 117, (S)-2-(2-(3-(1-(1-acetylazetidin-3-yl)piperidin-4-yl)-1-methyl-1H-pyrazolo[3,4-b]pyridin-5-yl)-7-(4-chlorophenyl)-5-methylbenzo[d]thiazol-6-yl)-2-(tert-butoxy)acetic acid] | 1690 nM | 27 nM | 1180 nM
13 | Cc1cc2nc(-c3cnc4c(n3)c(C3CCN(C5COC5)CC3)nn4C)sc2c(-c2ccc(Cl)cc2)c1[C@H](OC(C)(C)C)C(=O)O [Compound 118, (S)-2-(tert-butoxy)-2-(7-(4-chlorophenyl)-5-methyl-2-(1-methyl-3-(1-(oxetan-3-yl)piperidin-4-yl)-1H-pyrazolo[3,4-b]pyrazin-5-yl)benzo[d]thiazol-6-yl)acetic acid] | 737 nM | 4 nM | 298 nM
14 | COC(=O)N1CC(N2CCC(c3nn(C)c4ncc(-c5nc6cc(C)c([C@H](OC(C)(C)C)C(=O)O)c(-c7ccc(Cl)cc7)c6s5)nc34)CC2)C1 [Compound 119, (S)-2-(tert-butoxy)-2-(7-(4-chlorophenyl)-2-(3-(1-(1-(methoxycarbonyl)azetidin-3-yl)piperidin-4-yl)-1-methyl-1H-pyrazolo[3,4-b]pyrazin-5-yl)-5-methylbenzo[d]thiazol-6-yl)acetic acid] | 332 nM | 8 nM | 310 nM
15 | CC(=O)N1CC(N2CCC(c3nn(C)c4ncc(-c5nc6cc(C)c([C@H](OC(C)(C)C)C(=O)O)c(-c7ccc(Cl)cc7)c6s5)nc34)CC2)C1 [Compound 120, (S)-2-(2-(3-(1-(1-acetylazetidin-3-yl)piperidin-4-yl)-1-methyl-1H-pyrazolo[3,4-b]pyrazin-5-yl)-7-(4-chlorophenyl)-5-methylbenzo[d]thiazol-6-yl)-2-(tert-butoxy)acetic acid] | 217 nM | 3 nM | 185 nM
16 | Cc1cc2nc(-c3ccc4c(c3)c(N3CC(C)(C)NC3=O)nn4C)sc2c(-c2ccc(Cl)cc2)c1[C@H](OC(C)(C)C)C(=O)O [Compound 121, (S)-2-(tert-butoxy)-2-(7-(4-chlorophenyl)-2-(3-(4,4-dimethyl-2-oxoimidazolidin-1-yl)-1-methyl-1H-indazol-5-yl)-5-methylbenzo[d]thiazol-6-yl)acetic acid] | 2690 nM | 39 nM | 3480 nM
17 | COCC(C)N1CC(c2nn(C)c3ccc(-c4nc5cc(C)c([C@H](OC(C)(C)C)C(=O)O)c(-c6ccc(Cl)cc6)c5s4)cc23)C1 (stereo partly drawn) [Compound 124, (2S)-2-(tert-butoxy)-2-(7-(4-chlorophenyl)-2-(3-(1-(1-methoxypropan-2-yl)azetidin-3-yl)-1-methyl-1H-indazol-5-yl)-5-methylbenzo[d]thiazol-6-yl)acetic acid] | 3440 nM | 4 nM | 1440 nM
18 | CCN1CCC(c2nn(C)c3ccc(-c4nc5cc(C)c([C@H](OC(C)(C)C)C(=O)O)c(-c6ccc(Cl)cc6)c5s4)cc23)CC1 [Compound 126, (S)-2-(tert-butoxy)-2-(7-(4-chloro-phenyl)-2-(3-(1-ethylpiperidin-4-yl)-1-methyl-1H-indazol-5-yl)-5-methylbenzo[d]thiazol-6-yl) acetic acid] | 540 nM | 8 nM | 551 nM
19 | Cc1cc2nc(-c3ccc4c(c3)c(C3CCN(C(C)C)CC3)nn4C)sc2c(-c2ccc(Cl)cc2)c1[C@H](OC(C)(C)C)C(=O)O [Compound 127, (S)-2-(tert-butoxy)-2-(7-(4-chloro-phenyl)-2-(3-(1-isopropylpiperidin-4-yl)-1-methyl-1H-indazol-5-yl)-5-methylbenzo[d]thiazol-6-yl) acetic acid] | 1700 nM | 8 nM | 932 nM
